Here are results for 8 compounds from patent publication US20030162300A1, “Galactomannan-oligosaccharides and methods for the production and use thereof” (priority 1999, published 2003).

The subject of one series is E. coli, 2 strains. Kind of series: Adhesion of pathogenic microorganisms to human uroepithelial cells, E. coli. The series is classed as cell-based. The following applies: human uroepithelial cells preincubated with the carbohydrate. The method, then: (§1) Human uroepithelial cells obtained by means of centrifugation from first morning urine
(§2) Staphylococcus aureus, 2 strains, and E. coli, 2 strains, each as suspension with 10^9 microorganisms/mL
(§3) The epithelial cells and the suspension of microorganisms were combined and incubated for 30 min at 37° C. Subsequently, the epithelial cells were separated from the nonadherent microorganisms by means of membrane filtration (8 μ). The filters were repeatedly washed and placed into physiological saline solution, and the epithelial cells were suspended in said solution. After centrifuging the suspension in saline solution, the pellet was placed on a microscopic slide and stained according to May-Grünwald and Giemsa. The number of the microorganisms adhering to 50 epithelial cells as counted. The number represented the blank reading. Epithelial cells without the addition of a suspension of microorganisms served as the control.
(§4) In the main test, epithelial cells were first incubated for 1, 2, and 3 h with galactomanno-oligosaccharide solutions of different concentrations. They were subsequently combined with the suspension of microorganisms and treated as described above. The number of microorganisms adhering to 50 epithelial cells represented the measured value.

A further series concerns monocytes. Briefly: Phagocytosis assay, monocytes. The series is classed as cell-based. The following applies: E. coli nonopsonized, 100 μg/batch, whole blood. Here is the method:
(§5) The influence of the galactomanno-oligosaccharides according to the present invention on the function of the phagocytes (mono-, granulocytes) can be determined by means of phagocytosis assays. During the phagocytosis stimulation, the phagocytes were first incubated with galactomanno-oligosaccharides (100 μg of glycan/0. 11 mL of whole blood, 37° C., 10 min). A corresponding blank was incubated for 10 min in an ice bath. Subsequently, the actual phagocytosis test was carried out under the following conditions:
(§6) 0.11 mL of the preliminary incubation solution was allowed to stand for 10 min in the ice bath; subsequently, 0.01 mL of nonopsonized E. coli (fluorescein isothiocyanate (FITC) marked, 10^9 per mL, ORPEGEN) or 0.01 mL of nonopsonized Staphylococcus aureus (15×10^6 per mL, FITC marked, MOLECULAR PROBES) were added. The batches were incubated (double determinations) for 10 min at 37° C. The batches were washed twice with 3 mL of washing buffer (ORPEGEN) each and centrifuged at 250×g for 5 min at 4° C. […]
(§7) The measurement was carried out in the flow cytometer (excitation: 488 nm, emission FL-1: 520 nm); monocytes and granulocytes can be distinguished from each other without separation (forward light scatter (FSC) versus ([…]) (sideways light scatter). The results are expressed as a percentage of the phagocytosis-positive cells (see Table VI below). […]

The test system of a further series is granulocytes. Kind of series: Phagocytosis assay, granulocytes. It is filed as cell-based. The following applies: 100 μg/batch, whole blood. The method, then:
as §5, §6, §7

The subject of series [1] is Staphylococcus aureus, 2 strains. Briefly: Adhesion of pathogenic microorganisms to human uroepithelial cells, Staphylococcus aureus. Conditions: human uroepithelial cells preincubated with the carbohydrate. It is filed as cell-based. The method, then:
as §1, §2, §3, §4

In series [2] the target is T1, saccharase/isomaltase (SI complex) (Sus scrofa, UniProt P56729).
T1 construct: were isolated from the thin intestine of pigs using the method described by H. Heymann; from tissue; host or cells: pig small intestine (mucous membrane)
Briefly: Cleavability by alpha-glucosidases of the small intestine, SI complex. It is filed as in vitro ADME, pigs. The following applies: SI enzyme complex 0.7 U, 1% in TRA buffer pH 7.0, 2 h, 37° C. From the text:
In vivo, the enzyme complexes saccharase/isomaltase and glucoamylase/maltase which are present in the mucous membranes of the small intestine ensure that after their passage into the small intestine, the disaccharides maltose and saccharose and in part also the malto-oligosaccharides are cleaved to form monosaccharides and as such are able to reach the circulatory system via the intestinal wall.
The stability of the galactomanno-oligosaccharides according to the present invention against these enzymes was tested as follows:
The enzyme complexes saccharase/isomaltase (SI complex) and glucoamylase/maltase (GM complex) were isolated from the thin intestine of pigs using the method described by H. Heymann (dissertation, Hannover, 1991).
The cleavability of the galactomanno-oligosaccharides according to the present invention by means of a-glucosidases present in the small intestine was determined as follows:
Triethanolamine (TRA) buffer, 0.1 M, pH 7.0
Galactomanno-oligosaccharides, 1% solution in TRA buffer
Maltose and saccharose as control substances, 1% in TRA buffer […]
At t=0, 0.7 U of the enzyme complex saccharase/isomaltase or glucoamylase/maltase were added to 1.2 mL of the carbohydrate solution which had been heated to a temperature of 37° C., mixed, and incubated at 37° C. […] The monosaccharides formed as well as the test substances used were quantitatively determined by means of HPAEC.

Series [3] has as its system Streptococcus mutans DSM 20523. Kind of series: Stability in the mouth: incubation with Streptococcus mutans. The series is classed as in vitro ADME. Conditions: 1% in 20 mM carbonate buffer pH 7.5, 37° C., 2 h (120 min). Here is the method: (§8) Streptococcus mutans and Streptococcus sobrinus were cultivated for 24 h in liquid DSM medium 92 under anaerobic conditions at 37° C. At the end of the logarithmic growth phase, the cells were centrifuged off (15 min, 4000×g) and resuspended in 10% of the original 20 mM carbonate buffer, pH 7.5. Subsequently, 9 mL of a solution of the oligosaccharides according to the present invention (1% in 20 mM carbonate buffer, pH 7.5) were inoculated with 1 mL of the bacterial suspension and incubated for 2 h at 37° C.

Series [4] in a line: Stability in the stomach: hydrolysis rate at pH 1.0 and 2.0. Conditions: 37° C. It is filed as physicochemical. Here is the method:
For this purpose, 1% galactomanno-oligosaccharide solutions were incubated for 3 h at a pH value of 1.0 (0.1 M HCl) and a pH value of 2.0 (0.01 M HCl) and a temperature of 37° C. After 60, 120, and 180 min, samples were taken from the reaction batch and analyzed by means of HPAEC. The control substances used were saccharose and 1-kestose.

The subject of series [5] is Streptococcus sobrinus NCTC 10922. Briefly: Stability in the mouth: incubation with Streptococcus sobrinus. It is filed as in vitro ADME. Conditions: 1% in 20 mM carbonate buffer pH 7.5, 37° C., 2 h (120 min). Here is the method:
as §8

Series [6] has as its system fresh tooth plaque (mixed culture). Kind of series: Stability in the mouth: incubation with fresh tooth plaque. It is filed as in vitro ADME, male volunteers. Conditions: 10 mg plaque in 1 mL 1% solution, pH 7.5, 37° C., 2 h (120 min). Here is the method: Plaque samples were obtained from three male volunteers who had not brushed their teeth for three days, and in each case, 10 mg of the plaque were suspended in 1 mL of oligosaccharide solution (1% in 20 mM carbonate buffer, pH 7.5). In the course of the two-hour-long incubation time at 37° C., samples were taken and tested for their oligosaccharide content.

Series [7] relates to Reh(pre-B) on the colon cell line HT 29. Kind of series: Adhesion assay: Reh (pre-B) on the colon cell line HT 29. The series is classed as cell-based. The following applies: 10 μg/batch; for Mittelwert (%) (mean value), specific adhesion: percentage of the 100% value; for Index: relative to without carbohydrate = 1.00. Here is the method:
In the adhesion assay, the influence of galactomanno-oligosaccharides according to the present invention on the adhesion of B cell lines (for example, Reh) and normal human B lymphocytes to epithelial cells (colon tumor line HT 29) was measured. In the overlay assay used, the lymphocytes were intracellularly marked with calcein so as to make it possible to carry out the measurement by means of fluorometry.
First, coating with the adherent colon epithelial cell one (HT 29) in microtiter plates (24-hole Costar® plates) took place, with incubation (37° C., overnight) until a confluent bed has formed. This is done as much as possible in a serum-free medium Inoculum: 1×10^4 cells. Before the subsequent assay was carried out, the adherent cells were washed three times with PBS(phosphate-buffered physiological saline solution) and blocked for 1 h at room temperature with PBS+1% bovine serum albumin (BSA).
The untreated B cell lines or isolated B lymphocytes to be tested were marked with fluorescent calcein (1×10^7 cells in 2 mL of RPMI medium+HEPES+10 μL of calcein AM, 30 min, 37° C.; subsequently washed 2× with HBSS (Hanks buffer)+0.25% BSA) and 1×10^6 cells in 0.5 mL of PBS+0.25% […] per hole were incubated for 1 h. The culture plate was placed on a shaker for 10 sec, 0.5 mL of 0.2% glutaraldehyde in PBS+0.2% BSA per hole were added and incubated for 10 min on the shaker. The fluorescence of the plate was measured in a fluorescence measuring device ([…]).
The first measurement corresponds to the 100% value. Subsequently, the plate was washed four times and again measured. This measurement corresponds to the specific adhesion which is expressed as a percentage of the 100% value minus the autofluorescence value (unmarked cells). The control substances used were galactose and glucose.

Series [8] relates to resected colon pieces (distal segment). Briefly: Mucus secretion of resected colon pieces. It is filed as cell-based. Conditions: pig colon pieces, 5 h, 37°, Hanks buffer; galactomanno-oligosaccharides 1%. The method, then:
After thoroughly cleaning the resected colon of a freshly slaughtered pig, pieces measuring 1 cm^2 were cut from the distal segment of said colon. The pieces thus prepared were incubated, while stirring and fumigating with oxygen, for 5 h at a temperature of 37° in Hanks buffer to which chloramphenicol and ampicillin (50 μg/mL each) had been added. The buffer additionally contained 1% of the galactomanno-oligosaccharides produced according to the present invention and to be tested for their stimulating effect on the mucus secretion. As a control, 10 colon segments were used in each batch to be tested. One of the batches contained hydrocortisone which is normally used in the treatment of inflammatory intestinal diseases.
As a measure for an increase in the mucus secretion, the increase in the total carbohydrate content in the supernatant portion was measured. For this purpose, during the incubation, samples were collected at various times, and 20 μL of resorcin solution (6 mg/mL) and 100 μL of 75% sulfuric acid were added to 10 μL of each sample, and after an incubation time of 60 min at 80° C., the extinction was measured at λ=450 nm.

T1 sequence (P56729 with tags, fused parts or gaps): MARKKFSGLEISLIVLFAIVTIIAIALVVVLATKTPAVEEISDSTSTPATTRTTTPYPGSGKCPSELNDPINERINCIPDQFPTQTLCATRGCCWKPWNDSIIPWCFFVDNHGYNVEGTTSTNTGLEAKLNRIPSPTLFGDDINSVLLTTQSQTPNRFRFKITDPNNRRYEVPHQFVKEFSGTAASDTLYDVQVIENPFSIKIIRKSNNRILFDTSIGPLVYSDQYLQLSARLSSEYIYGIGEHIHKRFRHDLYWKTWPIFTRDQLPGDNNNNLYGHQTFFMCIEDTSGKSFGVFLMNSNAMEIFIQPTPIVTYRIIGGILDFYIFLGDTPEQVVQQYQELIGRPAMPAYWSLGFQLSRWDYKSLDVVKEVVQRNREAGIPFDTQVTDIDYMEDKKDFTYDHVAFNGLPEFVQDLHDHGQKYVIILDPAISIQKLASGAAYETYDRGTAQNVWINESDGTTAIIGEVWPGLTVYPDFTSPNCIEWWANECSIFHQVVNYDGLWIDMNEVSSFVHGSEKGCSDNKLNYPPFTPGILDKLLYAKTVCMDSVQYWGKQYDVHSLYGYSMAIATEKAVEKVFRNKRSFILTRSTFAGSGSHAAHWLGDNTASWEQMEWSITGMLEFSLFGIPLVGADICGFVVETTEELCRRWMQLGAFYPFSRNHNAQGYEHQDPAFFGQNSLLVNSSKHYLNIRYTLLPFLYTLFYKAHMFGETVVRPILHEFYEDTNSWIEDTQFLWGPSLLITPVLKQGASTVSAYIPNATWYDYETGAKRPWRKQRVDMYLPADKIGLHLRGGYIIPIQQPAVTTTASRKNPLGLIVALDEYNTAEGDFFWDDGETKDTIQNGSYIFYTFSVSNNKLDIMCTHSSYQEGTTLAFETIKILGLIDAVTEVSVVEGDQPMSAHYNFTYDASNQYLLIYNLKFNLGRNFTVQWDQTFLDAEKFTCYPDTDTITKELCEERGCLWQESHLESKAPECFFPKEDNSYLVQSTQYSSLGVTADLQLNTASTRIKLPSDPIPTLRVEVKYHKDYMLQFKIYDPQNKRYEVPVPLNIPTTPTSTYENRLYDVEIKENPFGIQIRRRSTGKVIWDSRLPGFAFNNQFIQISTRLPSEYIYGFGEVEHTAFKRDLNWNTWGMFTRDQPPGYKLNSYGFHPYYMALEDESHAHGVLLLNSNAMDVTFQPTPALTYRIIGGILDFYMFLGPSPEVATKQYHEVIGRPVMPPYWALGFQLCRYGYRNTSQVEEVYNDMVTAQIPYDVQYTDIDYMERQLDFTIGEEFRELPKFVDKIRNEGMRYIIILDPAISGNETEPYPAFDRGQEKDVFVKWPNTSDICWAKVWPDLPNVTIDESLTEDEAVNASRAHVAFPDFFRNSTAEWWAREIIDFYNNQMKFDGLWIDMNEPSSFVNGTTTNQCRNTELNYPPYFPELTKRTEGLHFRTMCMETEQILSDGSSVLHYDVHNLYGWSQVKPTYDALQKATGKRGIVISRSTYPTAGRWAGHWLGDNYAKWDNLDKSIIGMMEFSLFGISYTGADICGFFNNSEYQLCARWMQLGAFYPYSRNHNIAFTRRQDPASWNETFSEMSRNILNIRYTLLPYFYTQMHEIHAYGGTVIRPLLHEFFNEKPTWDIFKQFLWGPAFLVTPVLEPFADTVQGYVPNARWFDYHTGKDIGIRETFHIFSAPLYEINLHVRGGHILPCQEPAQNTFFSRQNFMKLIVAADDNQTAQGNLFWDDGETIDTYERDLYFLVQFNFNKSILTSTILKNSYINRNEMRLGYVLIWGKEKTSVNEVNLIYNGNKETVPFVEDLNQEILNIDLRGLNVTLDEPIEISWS

Consider `OC[C@H]1O[C@H](OC[C@H]2O[C@H](O[C@]3(CO)O[C@H](CO)[C@@H](O)[C@@H]3O)[C@H](O)[C@@H](O)[C@@H]2O)[C@H](O)[C@@H](O)[C@H]1O` [raffinose], for which the “number of microorganisms adhering to the epithelial cells” value (“number of microorganisms adhering” below) in the series with E. coli, 2 strains is recorded as “not reduced”; in series [1], “not reduced”. The “Monocyten (% positive Zellen), phagocytosis-positive cells” value in the series with monocytes is given as 22.0%. The “Granulocyten (% positive Zellen), phagocytosis-positive cells” value in the series on granulocytes (E. coli nonopsonized) turned out to be 17.0%; with granulocytes (Staph. aureus nonopsonized) it was 30.0%.
Regarding `OC[C@H]1O[C@@](CO)(OC[C@@]2(OC[C@@]3(O[C@H]4O[C@H](CO)[C@@H](O)[C@H](O)[C@H]4O)O[C@H](CO)[C@@H](O)[C@@H]3O)O[C@H](CO)[C@@H](O)[C@@H]2O)[C@@H](O)[C@@H]1O` [nystose], the “number of microorganisms adhering” value in the series with E. coli, 2 strains was “not reduced”; in series [1], “not reduced”.
With `OC[C@H]1O[C@@](CO)(O[C@H]2O[C@H](CO)[C@@H](O)[C@H](O)[C@H]2O)[C@@H](O)[C@@H]1O` [Saccharose, saccharose], the “Hydrolyserate (%) (Hydrolysis rate)” value in series [2] was found to be 98%. Also, the “cleavage/hydrolysis of the carbohydrate” value in series [3], in series [5] and in [6] was “completely hydrolyzed” in each case. Moreover, the “Hydrolysis rate in %” value in [4] (pH 1 (0.1 M HCl), 60 min) came out at 24%; in series [4] (pH 1 (0.1 M HCl), 120 min) it was 55%; in series [4] (pH 1 (0.1 M HCl), 180 min) it was 61%; in series [4] (pH 2 (0.01 M HCl), 60 min), 1%; in [4] (pH 2 (0.01 M HCl), 120 min), 2%; in [4] (pH 2 (0.01 M HCl), 180 min), 7%.
For `O=C[C@H](O)[C@@H](O)[C@H](O)[C@H](O)CO` [D-Glucose], in series [7], the “Mittelwert (%) (mean value), specific adhesion” value was determined as 47% and the Index stood at 1.11.
As to `C[C@]12CCC(=O)C=C1CC[C@@H]1[C@@H]2[C@@H](O)C[C@@]2(C)[C@H]1CC[C@]2(O)C(=O)CO` [hydrocortisone], the “increase in the mucus secretion compared to the control (total carbohydrate in supernatant)” value in series [8] is “approximately 5.3 -fold”.
Regarding `OC[C@H]1O[C@H](O[C@]2(CO)O[C@H](CO[C@H]3O[C@H](CO)[C@@H](O)[C@H](O)[C@H]3O)[C@@H](O)[C@@H]2O)[C@H](O)[C@@H](O)[C@@H]1O` [isomelzitose], the “number of microorganisms adhering” value is listed as “not reduced” with E. coli, 2 strains and “not reduced” in [1].
`O=C[C@H](O)[C@@H](O)[C@@H](O)[C@H](O)CO` [D-Galactose]: in series [7], the “Mittelwert (%) (mean value), specific adhesion” value came out at 51% and the Index was 1.12.
With `OC[C@H]1O[C@@](CO)(OC[C@@]2(O[C@H]3O[C@H](CO)[C@@H](O)[C@H](O)[C@H]3O)O[C@H](CO)[C@@H](O)[C@@H]2O)[C@@H](O)[C@@H]1O` [1-Kestose, 1-kestose], the “Hydrolysis rate in %” value in series [4] (pH 1 (0.1 M HCl), 60 min) is recorded as 90%; in series [4] (pH 1 (0.1 M HCl), 120 min), 100%; in [4] (pH 1 (0.1 M HCl), 180 min), 100%; in [4] (pH 2 (0.01 M HCl), 60 min), 16%; in series [4] (pH 2 (0.01 M HCl), 120 min), 30%; in series [4] (pH 2 (0.01 M HCl), 180 min), 43%.
